In paper PMC7774954, “Interactomic affinity profiling by holdup assay: Acetylation and distal residues impact the PDZome-binding specificity of PTEN phosphatase” (PLoS ONE, 2020):
*1 amine or outer side, *2 acyl side, *3 side chain or, on linkers, in order; H or OH if unused. Where a SMILES comes first, the peptide text is derived from it. The star is where a group is joined. X1 = O=C(CCCC[C@@H]1SC[C@@H]2NC(=O)N[C@@H]21)NCCCOCCOCCOCCCN*; Suc = O=C(CCC(=O)[*:2])[*:1]

Assays:
SCRIB-3 = target: T1, SCRIB-3 (Homo sapiens, UniProt Q14160); assay: Holdup assay, SCRIB-3; assay type: binding; conditions: for BI: PDZ domain SCRIB-3
T1 construct: Representative holdup data recorded for three PDZ domains (MAST2-1, HTRA1-1, SCRIB-3); made in house; host or cells: E. coli
T1 sequence (Q14160 1004-1093 limits assumed): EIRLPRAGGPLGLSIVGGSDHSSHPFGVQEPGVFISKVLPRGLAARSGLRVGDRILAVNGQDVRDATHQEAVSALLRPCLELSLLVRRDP
Protocol: (§1) The holdup assay was performed on a Tecan freedom Evo200 robot with 384-well plates in singlicate for the three 11-mer PTEN variants and the 13-mer PTEN peptide as described in [31, 32]. Briefly, prior to interaction assay, 2.5 μL of streptavidin resin was saturated in each well with 20 μL of biotinylated PBM peptides (42 μM) and then washed twice with an excess of free biotin, while the reference resin was incubated only with biotin. Right before the holdup experiment, the PDZ library was spiked with an internal standard of lysozyme. Then, the biotin- or PBM-saturated resin was incubated, each in a distinct well of a 384-well plate, with complete cell lysates diluted so that the concentration of the tag-PDZ present in the crude extract is adjusted at 4 μM. After a sufficient time to reach complex equilibrium (15 min.), a fast and mild filtration step is performed and the tag-PDZ concentrations were measured by capillary electrophoresis instrument (LabChip GXII, PerkinElmer, Massachusets, USA). Standard markers were used to convert migration time into molecular weight on the LabChip software and inappropriate molecular weight markers were corrected or excluded.
(§2) For filtered data, the BI was extracted with the following equation (Eq 1) that estimates the depleted fraction after superimposition of the sample and reference electropherograms: BI=Iref−Ilig/Iref (1) where Iref and Ilig are the intensities of the tag-PDZ peaks measured, for each PDZ domain/PBM peptide interaction pair, in the biotin reference and the PBM electropherograms, respectively.

MAGI1 PDZ 3 = target: T2, MAGI1 PDZ 3 (Homo sapiens, UniProt Q96QZ7); assay: Holdup assay, MAGI1-3; assay type: binding; conditions: for BI: MAGI1-3
T2 construct: made in house; host or cells: E. coli
T2 sequence (Q96QZ7 643-721 limits assumed): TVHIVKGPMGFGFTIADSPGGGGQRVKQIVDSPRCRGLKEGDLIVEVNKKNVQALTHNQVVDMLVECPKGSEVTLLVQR
Protocol: as §1, §2
(§3) BIs were transformed into dissociation constants (KD) using the following formula: KD=([PDZtot]−BI·[PDZtot])·([PBMtot]−BI·[PDZtot])/BI·[PDZtot] (2) where [PDZtot] and [PBMtot] correspond to the total concentrations of the PDZ domain (usually around 4 μM) and the PBM peptide used during the assay. Since the PBMtot concentration in the resin during the holdup assay parameter may differ from one peptide to another and remains unknown, it is impossible to directly convert BI values into KD constants. We systematically determined the KD constants for a subset of PDZ/PBM pairs by competitive FP. […] For each PBM, the average peptide concentration was calculated after outlier rejection based on the absolute distances from the median as compared to three times the standard deviation (3σ rule), with never more than 2 values rejected.

MAGI2 PDZ 3 = target: T3, MAGI2 PDZ 3 (Homo sapiens, UniProt Q86UL8); assay: Holdup assay, MAGI2-3; assay type: binding; conditions: for BI: MAGI2-3
T3 construct: made in house; host or cells: E. coli
T3 sequence (Q86UL8 605-683 limits assumed): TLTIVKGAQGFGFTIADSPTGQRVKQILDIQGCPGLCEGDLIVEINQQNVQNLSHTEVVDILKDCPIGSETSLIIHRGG
Protocol: as §1, §2, §3

GRIP2-4 = assay: Holdup assay, GRIP2-4; assay type: binding, human
CNKSR3-1 = assay: Holdup assay, CNKSR3-1; assay type: binding, human
GRIP1-2 = assay: Holdup assay, GRIP1-2; assay type: binding, human
LNX2-2 = target: T4, LNX2-2 (Homo sapiens, UniProt Q8N448); assay: Holdup assay, LNX2-2; assay type: binding
T4 sequence (Q8N448 339-422): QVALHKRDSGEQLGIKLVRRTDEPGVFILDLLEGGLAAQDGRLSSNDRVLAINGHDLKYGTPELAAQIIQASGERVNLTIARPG

DFNB31-1 = target: T5, DFNB31-1 (Homo sapiens, UniProt Q9P202); assay: Holdup assay, DFNB31-1; assay type: binding
T5 sequence (Q9P202 140-223): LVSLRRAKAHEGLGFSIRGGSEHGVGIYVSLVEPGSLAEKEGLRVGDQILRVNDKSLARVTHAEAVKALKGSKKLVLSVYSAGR

DLG5-1 = assay: Holdup assay, DLG5-1; assay type: binding, human
DLG2-1 = DLG2-1 (Homo sapiens, UniProt Q15700); assay: Holdup assay, DLG2-1; assay type: binding; conditions: for BI / LogKD: DLG2-1
GRIP1-3 = assay: Holdup assay, GRIP1-3; assay type: binding, human
MAGI2 PDZ 2 = target: T6, MAGI2 PDZ 2 (Homo sapiens, UniProt Q86UL8); assay: Holdup assay, MAGI2-2; assay type: binding; conditions: for BI: MAGI2-2
T6 construct: made in house; host or cells: E. coli
T6 sequence (Q86UL8 426-510 limits assumed): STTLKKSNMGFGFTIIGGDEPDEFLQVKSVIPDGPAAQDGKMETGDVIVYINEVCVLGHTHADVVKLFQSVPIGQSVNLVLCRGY
Protocol: as §1, §2, §3

DVL3-1 = assay: Holdup assay, DVL3-1; assay type: binding, human
NHERF1 PDZ 1 = target: T7, NHERF1 PDZ 1 (Homo sapiens, UniProt O14745); assay: Holdup assay, NHERF1-1; assay type: binding; conditions: for BI: PDZ domain NHERF1-1
T7 construct: NHERF1-1 as the first PDZ domain of the NHERF1 protein; made in house; host or cells: E. coli
T7 sequence (O14745 14-94 limits assumed): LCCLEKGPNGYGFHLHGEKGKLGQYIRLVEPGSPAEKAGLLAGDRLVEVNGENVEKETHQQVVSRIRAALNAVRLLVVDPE
Protocol: as §1, §2, §3

DLG1-1 = DLG1-1 (Homo sapiens, UniProt Q12959); assay: Holdup assay, DLG1-1; assay type: binding
MAGI1-5 = MAGI1-5 (Homo sapiens, UniProt Q96QZ7); assay: Holdup assay, MAGI1-5; assay type: binding
Sequence of MAGI1-5 (Q96QZ7 970-1066): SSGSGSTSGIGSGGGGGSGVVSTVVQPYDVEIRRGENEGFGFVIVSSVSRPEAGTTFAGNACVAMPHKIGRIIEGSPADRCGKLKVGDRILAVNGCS

LDB3-1 = assay: Holdup assay, LDB3-1; assay type: binding, human

CC[C@H](C)[C@H](NC(=O)[C@H](CCC(N)=O)NC(=O)[C@@H](NC(=O)[C@H](Cc1c[nH]cn1)NC(=O)[C@H](CCC(N)=O)NC(=O)[C@H](CC(=O)O)NC(=O)[C@H](CCC(=O)O)NC(=O)[C@H](CC(=O)O)NC(=O)CCC(=O)NCCCOCCOCCOCCCNC(=O)CCCC[C@@H]1SC[C@@H]2NC(=O)N[C@@H]21)[C@@H](C)O)C(=O)N[C@H](C(=O)N[C@@H](CCCCN)C(=O)N[C@H](C(=O)O)C(C)C)[C@@H](C)O [PTEN_11]
BI (SCRIB-3): 0.058
BI (binding intensity) (SCRIB-3; SCRIB-3, holdup, singlicate): 0.02
Kd (MAGI1 PDZ 3): 29.6 µM
BI (MAGI1 PDZ 3): 0.519
Kd (MAGI2 PDZ 3): 47.2 µM
BI (MAGI2 PDZ 3): 0.407
BI (GRIP2-4): -0.019
LogKD (GRIP2-4): 3.519
BI (CNKSR3-1): 0.028
LogKD (CNKSR3-1): 3.519
BI (GRIP1-2): 0.006
LogKD (GRIP1-2): 3.519
BI (LNX2-2): -0.039
LogKD (LNX2-2): 3.519
BI (DFNB31-1): 0.108
BI (DLG5-1): -0.042
LogKD (DLG5-1): 3.519
BI (DLG2-1): 0.034
LogKD (DLG2-1): 3.519
BI (GRIP1-3): -0.015
LogKD (GRIP1-3): 3.519
BI (MAGI2 PDZ 2): 0.18
BI (DVL3-1): 0.012
LogKD (DVL3-1): 3.519
Kd (NHERF1 PDZ 1): 32.8 µM
BI (NHERF1 PDZ 1): 0.494
BI (DLG1-1; DLG1-1): 0.109
BI (MAGI1-5): 0.536
Kd (MAGI1-5): 27.6 µM
BI (LDB3-1): -0.027
LogKD (LDB3-1): 3.519

CC[C@H](C)[C@H](NC(=O)[C@H](CCC(N)=O)NC(=O)[C@@H](NC(=O)[C@H](Cc1c[nH]cn1)NC(=O)[C@H](CCC(N)=O)NC(=O)[C@H](CC(=O)O)NC(=O)[C@H](CCC(=O)O)NC(=O)[C@H](CC(=O)O)NC(=O)CCC(=O)NCCCOCCOCCOCCCNC(=O)CCCC[C@@H]1SC[C@@H]2NC(=O)N[C@@H]21)[C@@H](C)O)C(=O)N[C@H](C(=O)N[C@@H](CCCCNC(C)=O)C(=O)N[C@H](C(=O)O)C(C)C)[C@@H](C)O [PTEN_Ac]
BI (SCRIB-3): -0.053
Kd (MAGI1 PDZ 3): 10 µM
BI (MAGI1 PDZ 3): 0.715
Kd (MAGI2 PDZ 3): 15.3 µM
BI (MAGI2 PDZ 3): 0.625
BI (GRIP1-2): -0.02
LogKD (GRIP1-2): 3.605
BI (LNX2-2): 0.68
Kd (LNX2-2): 11.9 µM
BI (DFNB31-1): 0.09
LogKD (DFNB31-1): 3.605
BI (DLG5-1): -0.005
LogKD (DLG5-1): 3.605
Kd (DLG2-1): 102 µM
BI (DLG2-1): 0.211
BI (GRIP1-3): 0.02
LogKD (GRIP1-3): 3.605
Kd (MAGI2 PDZ 2): 55.5 µM
BI (MAGI2 PDZ 2): 0.325
BI (DVL3-1): -0.002
LogKD (DVL3-1): 3.605
Kd (NHERF1 PDZ 1): 13.6 µM
BI (NHERF1 PDZ 1): 0.652
BI (DLG1-1; DLG1-1): 0.168
BI (MAGI1-5): 0.647
Kd (MAGI1-5): 13.9 µM
BI (LDB3-1): -0.04
LogKD (LDB3-1): 3.605

CC[C@H](C)[C@H](NC(=O)[C@H](CCC(N)=O)NC(=O)[C@@H](NC(=O)[C@H](Cc1c[nH]cn1)NC(=O)[C@H](CCC(N)=O)NC(=O)[C@H](CC(=O)O)NC(=O)[C@H](CCC(=O)O)NC(=O)[C@H](CC(=O)O)NC(=O)CCC(=O)NCCCOCCOCCOCCCNC(=O)CCCC[C@@H]1SC[C@@H]2NC(=O)N[C@@H]21)[C@@H](C)O)C(=O)N[C@H](C(=O)N[C@@H](CCCNC(=N)N)C(=O)N[C@H](C(=O)O)C(C)C)[C@@H](C)O [PTEN_KR] ({X1-Suc}-DEDQHTQITRV-OH)
BI (SCRIB-3): 0.022
Kd (MAGI1 PDZ 3): 14.7 µM
BI (MAGI1 PDZ 3): 0.605
Kd (MAGI2 PDZ 3): 21.2 µM
BI (MAGI2 PDZ 3): 0.52
BI (GRIP2-4): -0.019
LogKD (GRIP2-4): 3.655
BI (CNKSR3-1): -0.031
LogKD (CNKSR3-1): 3.655
BI (GRIP1-2): -0.06
LogKD (GRIP1-2): 3.655
BI (LNX2-2): 0.256
Kd (LNX2-2): 69.7 µM
BI (DFNB31-1): 0.118
BI (DLG5-1): -0.041
LogKD (DLG5-1): 3.655
BI (DLG2-1): 0.191
BI (GRIP1-3): -0.034
LogKD (GRIP1-3): 3.655
Kd (MAGI2 PDZ 2): 29.2 µM
BI (MAGI2 PDZ 2): 0.443
BI (DVL3-1): 0.037
LogKD (DVL3-1): 3.655
Kd (NHERF1 PDZ 1): 3.45 µM
BI (NHERF1 PDZ 1): 0.862
Kd (DLG1-1): 88.1 µM
BI (DLG1-1; DLG1-1): 0.215
BI (MAGI1-5): 0.619
Kd (MAGI1-5): 13.9 µM
BI (LDB3-1): -0.05
LogKD (LDB3-1): 3.655

CC[C@H](C)[C@H](NC(=O)[C@H](CCC(N)=O)NC(=O)[C@@H](NC(=O)[C@H](Cc1c[nH]cn1)NC(=O)[C@H](CCC(N)=O)NC(=O)[C@H](CC(=O)O)NC(=O)[C@H](CCC(=O)O)NC(=O)[C@H](CC(=O)O)NC(=O)[C@H](Cc1ccccc1)NC(=O)[C@@H]1CCCN1C(=O)CCC(=O)NCCCOCCOCCOCCCNC(=O)CCCC[C@@H]1SC[C@@H]2NC(=O)N[C@@H]21)[C@@H](C)O)C(=O)N[C@H](C(=O)N[C@@H](CCCCN)C(=O)N[C@H](C(=O)O)C(C)C)[C@@H](C)O [PTEN_13] ({X1-Suc}-PFDEDQHTQITKV-OH)
BI (SCRIB-3): -0.068
Kd (MAGI1 PDZ 3): 10.4 µM
BI (MAGI1 PDZ 3): 0.584
Kd (MAGI2 PDZ 3): 30.1 µM
BI (MAGI2 PDZ 3): 0.342
BI (GRIP2-4): -0.022
BI (CNKSR3-1): 0.002
BI (GRIP1-2): 0.009
BI (LNX2-2): 0.136
BI (DFNB31-1): 0.145
BI (DLG5-1): -0.048
BI (DLG2-1): 0.035
LogKD (DLG2-1): 3.826
BI (GRIP1-3): -0.002
BI (MAGI2 PDZ 2): 0.082
BI (DVL3-1): -0.003
BI (DLG1-1; DLG1-1): 0.011
LogKD (DLG1-1; DLG1-1): 3.826
BI (MAGI1-5): 0.274
Kd (MAGI1-5): 42.1 µM
BI (LDB3-1): -0.021
